ChEMBL document CHEMBL4507296 (2021)

Tests used:
[1] = molecular target: Vascular endothelial growth factor receptor 1 (Homo sapiens) (UniProt P17948); settings: Compound concentration 1000.0 nM
[2] = molecular target: Serine/threonine-protein kinase ULK1 (Homo sapiens) (UniProt O75385); settings: Compound concentration 1000.0 nM
[3] = molecular target: Beta-3 adrenergic receptor (Homo sapiens) (UniProt P13945); settings: Compound concentration 10.0 uM
[4] = molecular target: Cyclin-dependent kinase 8 (Homo sapiens) (UniProt P49336); settings: Compound concentration 1000.0 nM
[5] = molecular target: Serine/threonine-protein kinase 10 (Homo sapiens) (UniProt O94804); settings: Compound concentration 1000.0 nM
Serine/threonine-protein kinase 10 (Homo sapiens), sequence (O94804 whole entry, looked up): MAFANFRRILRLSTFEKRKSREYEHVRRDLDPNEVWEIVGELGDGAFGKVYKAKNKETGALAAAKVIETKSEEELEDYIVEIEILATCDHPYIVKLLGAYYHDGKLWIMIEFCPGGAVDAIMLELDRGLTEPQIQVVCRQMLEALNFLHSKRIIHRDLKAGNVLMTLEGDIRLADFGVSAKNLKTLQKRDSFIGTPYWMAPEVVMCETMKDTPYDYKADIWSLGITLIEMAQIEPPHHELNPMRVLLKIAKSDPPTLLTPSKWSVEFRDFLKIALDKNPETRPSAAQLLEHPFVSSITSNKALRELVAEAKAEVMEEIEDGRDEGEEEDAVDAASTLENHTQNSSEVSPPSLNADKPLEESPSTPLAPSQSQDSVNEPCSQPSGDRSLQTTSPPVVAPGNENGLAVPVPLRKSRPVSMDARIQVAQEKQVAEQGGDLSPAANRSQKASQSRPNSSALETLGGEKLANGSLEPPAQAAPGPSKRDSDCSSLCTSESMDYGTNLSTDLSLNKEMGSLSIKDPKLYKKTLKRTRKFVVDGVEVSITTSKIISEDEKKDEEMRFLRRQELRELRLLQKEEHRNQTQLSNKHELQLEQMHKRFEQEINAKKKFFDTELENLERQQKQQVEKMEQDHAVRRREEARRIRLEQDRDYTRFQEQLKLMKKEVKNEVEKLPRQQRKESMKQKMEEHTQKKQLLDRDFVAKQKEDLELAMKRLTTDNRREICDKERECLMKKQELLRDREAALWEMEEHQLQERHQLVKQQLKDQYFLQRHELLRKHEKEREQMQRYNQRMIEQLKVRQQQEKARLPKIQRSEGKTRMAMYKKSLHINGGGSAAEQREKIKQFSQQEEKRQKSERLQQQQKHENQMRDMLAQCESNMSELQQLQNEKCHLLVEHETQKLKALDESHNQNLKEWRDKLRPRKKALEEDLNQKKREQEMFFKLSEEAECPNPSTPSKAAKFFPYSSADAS

[6] = molecular target: Cyclin-dependent kinase 17 (Homo sapiens) (UniProt Q00537); settings: Compound concentration 1000.0 nM
Cyclin-dependent kinase 17 (Homo sapiens), sequence (Q00537 whole entry, looked up): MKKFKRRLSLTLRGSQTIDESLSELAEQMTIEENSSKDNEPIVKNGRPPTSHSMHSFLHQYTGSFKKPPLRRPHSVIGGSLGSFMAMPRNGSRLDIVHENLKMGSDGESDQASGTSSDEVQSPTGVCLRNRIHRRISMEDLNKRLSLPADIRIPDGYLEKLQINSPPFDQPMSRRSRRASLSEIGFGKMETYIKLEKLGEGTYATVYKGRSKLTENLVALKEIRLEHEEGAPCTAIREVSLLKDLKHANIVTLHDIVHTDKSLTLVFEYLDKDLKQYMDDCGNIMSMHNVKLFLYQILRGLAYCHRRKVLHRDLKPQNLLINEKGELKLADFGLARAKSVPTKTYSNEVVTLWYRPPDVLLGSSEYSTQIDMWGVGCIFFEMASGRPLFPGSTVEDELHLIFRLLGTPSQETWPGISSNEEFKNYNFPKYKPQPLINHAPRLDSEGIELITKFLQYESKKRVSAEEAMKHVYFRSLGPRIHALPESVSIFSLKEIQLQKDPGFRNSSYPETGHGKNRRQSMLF

[7] = molecular target: Tyrosine-protein kinase JAK3 (Homo sapiens) (UniProt P52333); settings: Compound concentration 1000.0 nM
[8] = molecular target: Calcium/calmodulin-dependent protein kinase kinase 1 (Homo sapiens) (UniProt Q8N5S9); settings: Compound concentration 1000.0 nM
[9] = molecular target: Serine/threonine-protein kinase ULK3 (Homo sapiens) (UniProt Q6PHR2); settings: Compound concentration 1000.0 nM
Serine/threonine-protein kinase ULK3 (Homo sapiens), sequence (Q6PHR2 whole entry): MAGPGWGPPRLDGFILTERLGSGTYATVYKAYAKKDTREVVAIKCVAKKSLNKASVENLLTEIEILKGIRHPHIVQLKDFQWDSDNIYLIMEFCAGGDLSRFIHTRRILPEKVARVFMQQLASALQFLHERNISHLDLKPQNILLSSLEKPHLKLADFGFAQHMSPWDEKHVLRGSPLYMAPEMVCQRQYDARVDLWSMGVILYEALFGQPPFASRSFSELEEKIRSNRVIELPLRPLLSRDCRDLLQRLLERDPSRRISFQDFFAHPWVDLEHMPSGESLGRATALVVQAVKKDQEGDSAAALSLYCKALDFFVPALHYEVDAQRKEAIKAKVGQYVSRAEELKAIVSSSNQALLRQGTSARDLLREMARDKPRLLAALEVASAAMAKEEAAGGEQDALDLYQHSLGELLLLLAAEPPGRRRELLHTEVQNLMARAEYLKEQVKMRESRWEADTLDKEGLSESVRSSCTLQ

[10] = molecular target: Aurora kinase B (Homo sapiens) (UniProt Q96GD4); settings: Compound concentration 1000.0 nM
[11] = molecular target: Cyclin-dependent kinase 7 (Homo sapiens) (UniProt P50613); settings: Compound concentration 1000.0 nM
[12] = molecular target: Serine/threonine-protein kinase Nek7 (Homo sapiens) (UniProt Q8TDX7); settings: Compound concentration 1000.0 nM
[13] = molecular target: Aurora kinase A (Homo sapiens) (UniProt O14965); settings: Compound concentration 1000.0 nM
[14] = system: Tyrosine-protein kinase ABL1 (Homo sapiens), P00519 [F317L]; settings: Compound concentration 1000.0 nM
[15] = molecular target: Casein kinase II subunit alpha (Homo sapiens) (UniProt P68400); settings: Compound concentration 1000.0 nM
[16] = molecular target: Serine/threonine-protein kinase VRK2 (Homo sapiens) (UniProt Q86Y07); settings: Compound concentration 1000.0 nM
[17] = molecular target: Ribosomal protein S6 kinase alpha-1 (Homo sapiens) (UniProt Q15418); settings: Compound concentration 1000.0 nM
[18] = molecular target: D(2) dopamine receptor (Homo sapiens) (UniProt P14416); settings: Compound concentration 10.0 uM
D(2) dopamine receptor (Homo sapiens), sequence (P14416 whole entry): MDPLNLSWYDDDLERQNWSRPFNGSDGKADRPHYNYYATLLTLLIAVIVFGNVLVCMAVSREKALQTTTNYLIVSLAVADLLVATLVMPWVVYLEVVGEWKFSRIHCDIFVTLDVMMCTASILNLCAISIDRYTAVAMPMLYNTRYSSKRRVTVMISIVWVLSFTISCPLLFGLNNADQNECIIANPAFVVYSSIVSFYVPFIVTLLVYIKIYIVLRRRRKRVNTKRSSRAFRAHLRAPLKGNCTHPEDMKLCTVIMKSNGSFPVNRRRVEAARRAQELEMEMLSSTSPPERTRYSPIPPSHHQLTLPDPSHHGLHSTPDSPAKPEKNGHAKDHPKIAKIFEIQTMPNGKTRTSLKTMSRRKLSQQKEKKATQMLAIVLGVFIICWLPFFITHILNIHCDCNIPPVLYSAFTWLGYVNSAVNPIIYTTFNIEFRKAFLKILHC

[19] = molecular target: Mitogen-activated protein kinase 7 (Homo sapiens) (UniProt Q13164); settings: Compound concentration 1000.0 nM
[20] = molecular target: Beta-1 adrenergic receptor (Homo sapiens) (UniProt P08588); settings: Compound concentration 10.0 uM
[21] = molecular target: Receptor-interacting serine/threonine-protein kinase 4 (Homo sapiens) (UniProt P57078); settings: Compound concentration 1000.0 nM
[22] = molecular target: Dual specificity mitogen-activated protein kinase kinase 7 (Homo sapiens) (UniProt O14733); settings: Compound concentration 1000.0 nM
Dual specificity mitogen-activated protein kinase kinase 7 (Homo sapiens), sequence (O14733 whole entry): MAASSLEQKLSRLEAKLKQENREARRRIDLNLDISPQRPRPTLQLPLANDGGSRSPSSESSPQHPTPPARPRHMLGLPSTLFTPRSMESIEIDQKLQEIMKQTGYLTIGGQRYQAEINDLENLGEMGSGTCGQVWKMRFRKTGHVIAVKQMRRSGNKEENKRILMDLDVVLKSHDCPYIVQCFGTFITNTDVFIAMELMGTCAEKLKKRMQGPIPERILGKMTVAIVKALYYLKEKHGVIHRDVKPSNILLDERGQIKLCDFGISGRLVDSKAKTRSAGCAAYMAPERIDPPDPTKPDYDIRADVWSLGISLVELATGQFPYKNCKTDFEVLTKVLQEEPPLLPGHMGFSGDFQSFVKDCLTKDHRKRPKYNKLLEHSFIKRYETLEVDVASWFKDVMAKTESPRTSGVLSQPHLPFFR

[23] = molecular target: Bone morphogenetic protein receptor type-1B (Homo sapiens) (UniProt O00238); settings: Compound concentration 1000.0 nM
[24] = molecular target: Dual specificity tyrosine-phosphorylation-regulated kinase 1A (Homo sapiens) (UniProt Q13627); settings: Compound concentration 1000.0 nM
[25] = molecular target: Serine/threonine-protein kinase 38-like (Homo sapiens) (UniProt Q9Y2H1); settings: Compound concentration 1000.0 nM
[26] = molecular target: Mitogen-activated protein kinase 8 (Homo sapiens) (UniProt P45983); settings: Compound concentration 1000.0 nM
[27] = molecular target: Ribosomal protein S6 kinase alpha-2 (Homo sapiens) (UniProt Q15349); settings: Compound concentration 1000.0 nM
Ribosomal protein S6 kinase alpha-2 (Homo sapiens), sequence (Q15349 whole entry): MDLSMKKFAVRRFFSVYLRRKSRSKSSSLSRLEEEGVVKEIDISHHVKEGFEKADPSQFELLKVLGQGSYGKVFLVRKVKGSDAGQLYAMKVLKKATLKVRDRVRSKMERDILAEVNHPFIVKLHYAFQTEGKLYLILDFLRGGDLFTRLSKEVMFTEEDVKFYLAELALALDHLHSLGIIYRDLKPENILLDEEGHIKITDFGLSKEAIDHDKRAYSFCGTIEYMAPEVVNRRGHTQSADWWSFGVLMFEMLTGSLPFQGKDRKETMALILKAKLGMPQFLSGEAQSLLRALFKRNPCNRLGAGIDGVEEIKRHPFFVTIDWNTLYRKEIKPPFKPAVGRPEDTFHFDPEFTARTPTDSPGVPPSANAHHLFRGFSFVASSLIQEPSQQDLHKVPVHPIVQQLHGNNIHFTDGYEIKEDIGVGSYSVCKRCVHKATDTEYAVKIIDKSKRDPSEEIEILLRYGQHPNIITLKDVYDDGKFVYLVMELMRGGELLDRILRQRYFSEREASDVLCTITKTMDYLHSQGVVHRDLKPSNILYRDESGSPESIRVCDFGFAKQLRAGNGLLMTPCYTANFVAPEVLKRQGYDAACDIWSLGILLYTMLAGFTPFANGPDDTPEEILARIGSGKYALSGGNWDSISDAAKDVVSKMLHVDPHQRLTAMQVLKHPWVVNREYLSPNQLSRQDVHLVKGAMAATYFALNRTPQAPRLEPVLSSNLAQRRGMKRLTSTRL

[28] = molecular target: Inhibitor of nuclear factor kappa-B kinase subunit alpha (Homo sapiens) (UniProt O15111); settings: Compound concentration 1000.0 nM
[29] = molecular target: NT-3 growth factor receptor (Homo sapiens) (UniProt Q16288); settings: Compound concentration 1000.0 nM
[30] = molecular target: Ribosomal protein S6 kinase alpha-2 (Homo sapiens) (UniProt Q15349); settings: Compound concentration 1000.0 nM; remark: listed apart in the source
[31] = molecular target: Mitogen-activated protein kinase kinase kinase 15 (Homo sapiens) (UniProt Q6ZN16); settings: Compound concentration 1000.0 nM
[32] = system: Epidermal growth factor receptor (Homo sapiens), P00533 [UNDEFINED MUTATION]; settings: Compound concentration 1000.0 nM
[33] = molecular target: Myosin light chain kinase family member 4 (Homo sapiens) (UniProt Q86YV6); settings: Compound concentration 1000.0 nM
[34] = molecular target: LIM domain kinase 1 (Homo sapiens) (UniProt P53667); settings: Compound concentration 1000.0 nM
[35] = system: Receptor-type tyrosine-protein kinase FLT3 (Homo sapiens), P36888 [D835Y]; settings: Compound concentration 1000.0 nM
[36] = molecular target: Tyrosine-protein kinase Lck (Homo sapiens) (UniProt P06239); settings: Compound concentration 1000.0 nM
[37] = molecular target: Inhibitor of nuclear factor kappa-B kinase subunit beta (Homo sapiens) (UniProt O14920); settings: Compound concentration 1000.0 nM
[38] = molecular target: Dual specificity protein kinase TTK (Homo sapiens) (UniProt P33981); settings: Compound concentration 1000.0 nM
[39] = molecular target: Muscle, skeletal receptor tyrosine-protein kinase (Homo sapiens) (UniProt O15146); settings: Compound concentration 1000.0 nM
[40] = molecular target: Mitogen-activated protein kinase 15 (Homo sapiens) (UniProt Q8TD08); settings: Compound concentration 1000.0 nM
[41] = molecular target: 5-hydroxytryptamine receptor 5A (Homo sapiens) (UniProt P47898); settings: Compound concentration 10.0 uM
[42] = molecular target: Discoidin domain-containing receptor 2 (Homo sapiens) (UniProt Q16832); settings: Compound concentration 1000.0 nM
[43] = molecular target: Tyrosine-protein kinase Fer (Homo sapiens) (UniProt P16591); settings: Compound concentration 1000.0 nM
[44] = molecular target: Insulin receptor (Homo sapiens) (UniProt P06213); settings: Compound concentration 1000.0 nM
Insulin receptor (Homo sapiens), sequence (P06213 28-758 limits assumed): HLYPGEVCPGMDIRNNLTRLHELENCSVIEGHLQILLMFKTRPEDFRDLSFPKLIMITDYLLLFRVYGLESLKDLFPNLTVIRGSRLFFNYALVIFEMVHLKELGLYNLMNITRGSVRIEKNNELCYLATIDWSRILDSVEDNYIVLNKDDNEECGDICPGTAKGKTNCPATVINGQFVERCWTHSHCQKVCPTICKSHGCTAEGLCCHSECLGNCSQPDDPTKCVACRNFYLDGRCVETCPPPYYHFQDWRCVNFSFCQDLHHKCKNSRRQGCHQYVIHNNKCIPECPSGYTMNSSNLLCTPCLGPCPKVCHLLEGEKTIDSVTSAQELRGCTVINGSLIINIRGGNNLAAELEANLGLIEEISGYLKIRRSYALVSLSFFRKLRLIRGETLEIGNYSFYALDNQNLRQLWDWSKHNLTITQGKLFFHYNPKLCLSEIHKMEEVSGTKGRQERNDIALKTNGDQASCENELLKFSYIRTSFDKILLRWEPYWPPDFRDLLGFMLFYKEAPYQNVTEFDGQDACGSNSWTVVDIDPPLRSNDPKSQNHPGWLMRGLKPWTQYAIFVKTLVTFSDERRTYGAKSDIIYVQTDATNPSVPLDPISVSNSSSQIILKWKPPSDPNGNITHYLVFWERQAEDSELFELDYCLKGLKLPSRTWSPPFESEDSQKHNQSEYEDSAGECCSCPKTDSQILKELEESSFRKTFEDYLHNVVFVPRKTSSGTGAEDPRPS
Insulin receptor (Homo sapiens), sequence (P06213 763-1382 limits assumed): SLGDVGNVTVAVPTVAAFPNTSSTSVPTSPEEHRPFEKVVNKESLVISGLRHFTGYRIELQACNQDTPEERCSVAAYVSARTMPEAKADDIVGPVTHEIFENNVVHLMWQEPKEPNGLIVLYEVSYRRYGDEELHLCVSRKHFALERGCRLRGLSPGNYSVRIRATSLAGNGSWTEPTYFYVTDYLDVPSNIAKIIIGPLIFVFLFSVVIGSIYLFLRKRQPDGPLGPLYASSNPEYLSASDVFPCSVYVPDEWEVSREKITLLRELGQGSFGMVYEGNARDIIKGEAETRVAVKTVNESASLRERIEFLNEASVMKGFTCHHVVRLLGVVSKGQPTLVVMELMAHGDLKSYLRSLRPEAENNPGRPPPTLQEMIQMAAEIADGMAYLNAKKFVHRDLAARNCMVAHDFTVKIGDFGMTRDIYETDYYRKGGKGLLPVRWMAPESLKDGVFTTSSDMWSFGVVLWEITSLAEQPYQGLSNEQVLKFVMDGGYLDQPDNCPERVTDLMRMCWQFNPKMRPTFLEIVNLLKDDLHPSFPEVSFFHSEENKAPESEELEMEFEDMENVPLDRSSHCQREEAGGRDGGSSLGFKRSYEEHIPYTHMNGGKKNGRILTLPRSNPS

[45] = molecular target: Uncharacterized serine/threonine-protein kinase SBK3 (Homo sapiens) (UniProt P0C264); settings: Compound concentration 1000.0 nM
[46] = molecular target: Mast/stem cell growth factor receptor Kit (Homo sapiens) (UniProt P10721); settings: Compound concentration 1000.0 nM

C[C@H](c1ccc(F)cc1)N(Cc1cccc(C(=O)O)c1)C(=O)c1cnc2ccccc2c1 [PF-05105679]
inactive: residual activity [1] 100% | residual activity [2] 86% | inhibition [3] 2.81% | residual activity [4] 100% | residual activity [5] 89% | residual activity [6] 84% | residual activity [7] 100% | residual activity [8] 100% | residual activity [9] 82% | residual activity [10] 100% | residual activity [11] 100% | residual activity [12] 100% | residual activity [13] 100% | residual activity [14] 99% | residual activity [15] 100% | residual activity [16] 100% | residual activity [17] 100% | inhibition [18] 7.61% | residual activity [19] 78% | inhibition [20] 7.42% | residual activity [21] 100% | residual activity [22] 100% | residual activity [23] 95% | residual activity [24] 100% | residual activity [25] 100% | residual activity [26] 100% | residual activity [27] 100% | residual activity [28] 93% | residual activity [29] 92% | residual activity [30] 100% | residual activity [31] 100% | residual activity [32] 100% | residual activity [33] 99% | residual activity [34] 100% | residual activity [35] 100% | residual activity [36] 100% | residual activity [37] 100% | residual activity [38] 100% | residual activity [39] 76% | residual activity [40] 93% | inhibition [41] -1.89% | residual activity [42] 96% | residual activity [43] 100% | residual activity [44] 100% | residual activity [45] 100% | residual activity [46] 100%
